The values below come from PMC7733796 (Proceedings of the National Academy of Sciences of the …, 2020).

Data set [1] has as its target T1, CXCR4 (Homo sapiens, UniProt P61073). Particulars: hNSCs preincubated with 10 µM, osmotic pump 24-72 h, analysis 3 d posttransplant.
The subject of data set [2] is hNSCs. As to the kind of experiment: Microarray gene expression and gene ontology analysis of hNSCs. It counts as cell-based, human. Particulars: hNSCs vs non-treated control.
In data set [3] the test system is hNSCs. The experiment in a line: CyQuant proliferation assay, hNSCs. It counts as cell-based, human. Particulars: SDV1a 10 nM, 72 h.
Data set [4] deals with T1, CXCR4. The experiment in a line: Single-cell [Ca2+]i. It counts as cell-based. Conditions: SDV1a 10 µM; at least 11 cells per condition.
Data set [5] deals with T1, CXCR4. The experiment in a line: Ca2+ mobilization. Conditions: Sup-T1 cells; for Ca2+ efflux (signaling) with increasing concentrations: Fura-2/AM ratiometric, plate reader, DV1 tested up to 40 µM. It counts as cell-based. (A change in cytosolic calcium serves as a functional read-out for many receptors and channels.)
Data set [6] in a line: Persistence and pharmacokinetics in mouse brain. It counts as in vivo.
A further data set deals with ERK1/2, p38-MAPK, IκBα. As to the kind of experiment: Western blot of phosphorylation downstream of CXCR4 in hNSCs. Conditions: hNSC lysates. It is filed as cell-based, human. (In general: In western blotting, separated proteins are transferred to a membrane and probed.)
The subject of data set [7] is hNSCs. The experiment in a line: Boyden chamber transmigration assay, hNSCs. It counts as cell-based, human. Particulars: hNSCs 1x10^5, 8-µm fibronectin-coated transwell, 5 h.
For data set [8], the system named is Sandhoff disease (Hexβ−/−) mice. As to the kind of experiment: Sandhoff disease. It is filed as in vivo, mouse.
A further data set has as its system activated M1 microglia. As to the kind of experiment: Microgliosis and safety after intracerebral injection in adult mice. Particulars: for CD11b+ cells (activated M1 microglia): adult mouse brain after injection, n = 3 mice per condition. It is filed as in vivo, mouse.
The target of data set [9] is T1, CXCR4. The experiment in a line: Receptor endocytosis analysis. It counts as cell-based. Particulars: hNSCs, ligand 4 µg/mL, 37°C.
The next data set concerns transplanted hNSCs. It is filed as in vivo, mouse. Conditions: adult C57BL/6J mice, 2 µl injected into cortex or hippocampus, n=3 per group.
In another data set the test system is Sup-T1 cells. As to the kind of experiment: Boyden chamber chemotaxis assay, Sup-T1 cells. It counts as cell-based, human. Particulars: peptide in lower chamber at titrated concentrations, 37°C 2 h.
Where [10] appears, read: 4-mo-old mice, hiPSC-hNSCs + SDV1a, n = 6.

Non-standard residues stand in square brackets, D forms with d. Residues, ends and D or L forms follow the SMILES beside them.

T1 sequence (P61073 whole entry): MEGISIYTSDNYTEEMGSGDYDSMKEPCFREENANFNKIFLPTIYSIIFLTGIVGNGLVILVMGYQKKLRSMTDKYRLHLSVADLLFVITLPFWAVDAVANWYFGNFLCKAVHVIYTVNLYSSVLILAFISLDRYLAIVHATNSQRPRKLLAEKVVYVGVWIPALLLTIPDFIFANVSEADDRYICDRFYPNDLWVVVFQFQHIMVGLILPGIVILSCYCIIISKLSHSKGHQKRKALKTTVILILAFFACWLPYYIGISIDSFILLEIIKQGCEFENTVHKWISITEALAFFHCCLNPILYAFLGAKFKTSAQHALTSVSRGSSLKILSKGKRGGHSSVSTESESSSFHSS

Turning to `c1cc(CN2CCCNCCNCCCNCC2)ccc1CN1CCCNCCNCCCNCC1` [AMD3100], the “Effect of CXCR4 inhibition on hNSC migration to SDV1a” value on CXCR4 [1] is recorded as “abrogated”.

With `CC(C)C[C@H](NC(=O)[C@H](CO)NC(=O)[C@@H](NC(=O)[C@@H]1CCCN1C(=O)[C@@H](N)CCCCN)C(C)C)C(=O)N[C@@H](CO)C(=O)N[C@@H](Cc1ccc(O)cc1)C(=O)N[C@@H](CCCNC(=N)N)C(=O)NCC(=O)NCC(=O)N[C@H](CC(C)C)C(=O)NCC(=O)N[C@H](C)C(=O)N[C@H](CO)C(=O)N[C@H](Cc1c[nH]c2ccccc12)C(=O)N[C@H](Cc1c[nH]cn1)C(=O)N[C@H](CCCNC(=N)N)C(=O)N1CCC[C@@H]1C(=O)N[C@H](CC(=O)O)C(=O)N[C@H](CCCCN)C(=O)N[C@H](CS)C(=O)N[C@H](CS)C(=O)N[C@H](CC(C)C)C(=O)NCC(=O)N[C@H](Cc1ccc(O)cc1)C(=O)N[C@H](CCC(N)=O)C(=O)N[C@H](CCCCN)C(=O)N[C@H](CCCNC(=N)N)C(=O)N1CCC[C@@H]1C(=O)N[C@H](CC(C)C)C(=O)N1CCC[C@@H]1C(N)=O` [SDV1a, L-(1∼8)-SDF1α-GG-D-(1∼21)-vMIP-II] (H-KPVSLSYRGG[dL]G[dA][dS][dW][dH][dR][dP][dD][dK][dC][dC][dL]G[dY][dQ][dK][dR][dP][dL][dP]-NH2; N-terminus assumed), in the data set with hNSCs [2], the “Gene ontology profile induced in hNSCs” value was “primarily induced genes associated with developmental, homeostatic, and stem cell-related functions”. In addition, the “Increase in total DNA content compared to untreated controls” value with hNSCs [3] is listed as 10%. On CXCR4 [4], the “Change of [Ca2+]i in single hNSCs” value is “increased [Ca^2+]i”. In addition, the “Signaling intensity (Ca2+ release) relative to CXCL12/SDF1α” value at CXCR4 [5] (Fura-2/AM) is given as “an order-of-magnitude less”. Besides, the “Persistence in brain after injection” value in data set [6] (FITC- or biotin-tagged SDV1a, adult mouse brain) was found to be 3 wk. In addition, in data set [6] (postinjection, C57BL/6J mice, HPLC-MS/MS), the “Time to dissemination throughout the regions” value is ≤ 30 min. For the same compound, the “Phosphorylation of p38-MAPK (Thr180/Tyr182) and IκBα (Ser-32/36)” value in the data set with ERK1/2, p38-MAPK, IκBα is on record as “phosphorylated”. Further, the “Concentration at which hNSC chemotaxis peaks (bell-shaped dose-response)” value in the data set on hNSCs [7] worked out at 5 nM. Further, in data set [8] (setting [10]), the “GM2 ganglioside storage in cortex” value is recorded as “little GM2 accumulation occurred” and the “Microgliosis (Iba1) in cortex where donor cells engrafted” value was “scant”. Moreover, in [8] (hiPSC-hNSC+SDV1a, regions where donor cells were attracted), the “Hex enzyme levels in CNS parenchyma” value is “raised beyond the critical 3 to 5% therapeutic threshold”. Besides, the “CD11b+ cells (activated M1 microglia)” value with activated M1 microglia came out at 1.1 ± 1.0 per 0.4 mm^2. Besides, the “Systemic or CNS toxicity, behavior” value in the data set on activated M1 microglia (mice after intracerebral injection) is recorded as “no evidence of systemic or CNS toxicity or altered behavior”. Also, on CXCR4 [9], the “Time to down-regulation of CXCR4 surface expression” value was 90 min.

On to “C-X-C motif chemokine ligand-12 [CXCL12]”, for which, in the data set with hNSCs [2], the “Gene ontology profile induced in hNSCs” value is “up-regulation of inflammatory and immune-related processes”. The “Attraction of hNSCs transplanted into the contralateral hippocampus” value in the data set on transplanted hNSCs was “drew no hNSCs”. Also, the “Ca2+ efflux (signaling) with increasing concentrations” value at CXCR4 [5] is “produced the most intense signaling”. Further, the “Time by which undetectable in brain after administration” value in data set [6] (similarly labeled recombinant CXCL12, adult mouse brain) is ≤ 2 days. Besides, the “Concentration at which hNSC chemotaxis peaks (bell-shaped dose-response)” value with hNSCs [7] was found to be 0.5 nM. In addition, in the data set with activated M1 microglia (adult mouse brain), the “Persistence of microgliosis postinjection” value came out at 2 wk. In the data set with activated M1 microglia, the “CD11b+ cells (activated M1 microglia)” value stood at 11.7 ± 2.8 per 0.4 mm^2. Besides, at CXCR4 [9], the “Time after which cell surface CXCR4 starts to rebound” value was > 45 min and the “Time to down-regulation of CXCR4 surface expression” value is listed as ≤ 10 min.

With D-(1~21)-vMIP-II [DV1], the “Ca2+ efflux (signaling) with increasing concentrations” value on CXCR4 [5] was “evoked no signaling”. For the same compound, the “Chemotaxis of Sup-T1 cells (upper to lower chamber)” value in the data set on Sup-T1 cells is on record as “elicited no chemotaxis”.

For the compound “L-(1~8)-SDF1a (KPVSLSYR; UniProt P48061 22-29, looked up, fragment) [S1]”, the “Chemotaxis of Sup-T1 cells (upper to lower chamber)” value in the data set on Sup-T1 cells is listed as “elicited no chemotaxis”.
